The results in this text go back to PubChem BioAssay AID504.

The experiment concerns the target Ras-related C3 botulinum toxin substrate 3 (Homo sapiens) (UniProt P60763). The experiment is described as follows: ligand-induced RAC3 melting temperature shift – biophysical, recombinant human protein, DSF (AID 504). The following applies: recombinant RAC3, DSF thermal shift, SYPRO orange; at 10 µM; protein 2 µM; buffer 10 mM HEPES; pH 7.5; NaCl 150 mM; active compounds read high.

Molecules are shown by their SMILES.

As for `N#CC(C(N)Sc1ccccc1N)C(C#N)C(N)Sc1ccccc1N` (configuration not stated), the Tm shift was 2.4 °C.

In the case of `N#C/C(=C1\Nc2ccccc2S1)c1ccnc(NCCc2cccnc2)n1`, the Tm shift was 2.3 °C.
